Experiments:
mTYR = mTYR (Agaricus bisporus, UniProt C7FF04); assay: Stability toward air and mTYR, decay of concentration by UV-Vis; settings: air-saturated PBS pH 6.8, 30 °C, 7 U/ml mTYR, 0.05 and 0.1 mM
[1] = Radical equilibration EPR (ReqEPR) for the O-H bond dissociation enthalpy; assay type: physicochemical
Protocol: Deoxygenated acetonitrile solutions containing the phenols (0.01–0.001 M) and di-tert-butyl peroxide (10% v/v) were sealed under nitrogen in a 2 mm ID suprasil quartz EPR tube. The sample was inserted in the thermostatted (30 °C) cavity of an X-band EPR spectrometer and photolyzed with a mercury–xenon lamp (240–400 nm, max 4500 mW/cm^2). Spectra were recorded with the following settings: modulation amplitude 0.2–1 Gauss, sweep width 30–60 Gauss, modulation frequency 100 kHz, frequency 9.76 GHz, sweep time 60 s, and microwave power 0.1–1 mW. Measured g-factors were corrected with respect to that of TEMPO (g = 2.0064) and of DPPH radical. In ReqEPR experiments, mixtures of TBP and butein were analyzed to obtain the molar ratio of the two equilibrating radicals by comparison of the digitized experimental spectra with computer-simulated ones, as previously described. This afforded the equilibrium constant, Keq. Different irradiation power levels (20% to 100%) and different ratios of the two phenols were tested to guarantee that the two species were at equilibrium.
The reactivity of (phenolic) chain-breaking antioxidants toward formal hydrogen atom transfer (HAT) to a radical such as peroxyl radicals is dictated by the strength of the phenolic O-H bond being broken, i.e., by its bond dissociation enthalpy (BDEOH), and by the steric hindrance in ortho position to the reactive OH [40, 41]. Indeed, there are well-established Evans–Polanyi linear free-energy correlations between the BDEOH and the inhibition rate constant kinh for phenolic antioxidants. One very accurate method to measure the BDEOH is via radical equilibration experiments using electron paramagnetic resonance spectroscopy, the ReqEPR technique. It consists of photolyzing the “unknown” phenol to be studied (^UPhOH) in a mixture with a reference phenol (^RPhOH) in the cavity of the EPR spectrometer with the addition of a peroxide (e.g., di-tert-butylperoxide) as a photochemical initiator. Analysis and deconvolution of the EPR spectrum containing both equilibrating radical species affords the equilibrium constant Keq (see Figure 3), which in turn allows determining the ∆G° of equilibration. Since it has been shown that ∆S° is negligible for such an equilibrium, this affords the BDEOH of ^UPhOH if the value is known for ^RPhOH (Figure 3A).
To convert this value into a gas-phase equivalent, it is necessary to correct for the effect of the solvent, which increases the apparent BDE value by H-bonding to the phenols (see Figure 3B). Such solvent effects can be accounted for quantitatively, as detailed in Figure 3B, by using Abraham’s solvatochromic parameters α2^H and β2^H, describing, respectively, the H-bond donating ability of the phenol and the H-bond accepting ability of the solvent. Considering that the solvent effect is negligible for TBP due to steric hindrance by the t-butyl groups in ortho [40], that α2^H for catechol is 0.73 and β2^H for acetonitrile is 0.39 [42], the DBE measured in acetonitrile must be downscaled by −1.4 kcal/mol to afford BDEOH = 78.4 ± 0.2 kcal/mol for butein in apolar solvent/gas-phase.

[2] = biological target: T1, mushroom tyrosinase (mTYR) (Agaricus bisporus, UniProt C7FF04); settings: previous report, cited from earlier work
T1 construct: purchased Sigma-Aldrich (Milan, Italy)
T1 sequence (C7FF04 1-392): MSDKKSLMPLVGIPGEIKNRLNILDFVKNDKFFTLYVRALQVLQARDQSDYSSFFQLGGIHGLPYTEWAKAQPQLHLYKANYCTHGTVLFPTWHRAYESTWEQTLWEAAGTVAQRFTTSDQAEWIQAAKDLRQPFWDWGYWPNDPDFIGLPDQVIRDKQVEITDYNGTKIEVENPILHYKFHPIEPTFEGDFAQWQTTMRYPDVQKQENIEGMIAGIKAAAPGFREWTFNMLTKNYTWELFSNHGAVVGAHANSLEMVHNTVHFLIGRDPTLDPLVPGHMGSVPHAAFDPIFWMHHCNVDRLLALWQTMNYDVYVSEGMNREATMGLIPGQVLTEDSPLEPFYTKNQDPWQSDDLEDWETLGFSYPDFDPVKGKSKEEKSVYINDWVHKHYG

[3] = biological target: T1, mushroom tyrosinase (mTYR); settings: cited from earlier work

mTYR, sequence (C7FF04 1-392): as above

Row | Structure (SMILES) | behaviour as substrate of mTYR (mTYR) | BDEOH ([1]; estimated from the value for butein by additive contribution of substituents) | BDEOH ([1]; estimated from the value for butein by additive contribution of substituents, listed as HB) | BDEOH ([1]; estimated from the value for butein by additive contribution of substituents, listed as homobutein) | Ki ([2]; monophenolase, competitive) | inhibition mode, monophenolase [2] | BDEOH ([1]; ReqEPR vs TBP, corrected for solvent to apolar solvent/gas-phase) | BDEOH ([1]; ReqEPR vs TBP, corrected for solvent to apolar solvent/gas-phase, listed as butein) | BDEOH higher compared to α-TOH ([1]; difference to α-TOH) | Keq (radical equilibration with TBP) ([1]; in acetonitrile at 298 K) | BDEOH ([1]; in acetonitrile at 298 K, not corrected for solvent) | BDEOH of any OH group in A ring ([1]; suggested from structure) | effect toward diphenolase reaction (reported) [3] | diphenolase inhibition (reported effect) ([3]; even at concentrations > 100 µM)
1 | COc1cc(/C=C/C(=O)c2ccc(O)cc2O)ccc1O [Homobutein, (E)-1-(2,4-dihydroxyphenyl)-3-(4-hydroxy-3-methoxyphenyl)prop-2-en-1-one] | not a significant substrate | 82.6 ^1 kcal/mol | 82.6 kcal/mol | ~ 82.6 kcal/mol |  |  |  |  |  |  |  |  |  | 
2 | O=C(/C=C/c1ccc(O)c(O)c1)c1ccc(O)cc1O [Butein, (E)-1-(2,4-dihydroxyphenyl)-3-(3,4-dihydroxyphenyl)prop-2-en-1-one] | not a significant substrate |  |  |  | 1410 µM | competitive | 78.4 ± 0.2 kcal/mol | 78.4 kcal/mol | 1.3 kcal/mol | 1.64 ± 0.63 | 79.8 ± 0.2 kcal/mol | > 86 kcal/mol | ineffective | poorly effective

From PMC10525132, “Potent Antioxidant and Anti-Tyrosinase Activity of Butein and Homobutein Probed by Molecular Kinetic and Mechanistic Studies” (Antioxidants, 2023)
